From patent US20050267072A1, “Pharmaceutical compositions containing dually acting inhibitors of neutral endopeptidase for the treatment of sexual dysfunction” (Solvay Pharmaceuticals GmbH, priority 2004, published 2005)
Read-outs that look alike come from different tables or passages of the source.

Assays:
[1] = target: T1, hSEP (His6-tagged hSEP ectodomain) (Homo sapiens, UniProt Q495T6); assay: Activity assay: breakdown of VIP and CNP by hSEP; assay type: biochemical; details: 120 min at 37° C., no inhibitor
T1 construct: His6-tagged hSEP ectodomain; His6; purchased Innogenetics, Ghent, Belgium
T1 sequence (Q495T6 49-779 limits assumed): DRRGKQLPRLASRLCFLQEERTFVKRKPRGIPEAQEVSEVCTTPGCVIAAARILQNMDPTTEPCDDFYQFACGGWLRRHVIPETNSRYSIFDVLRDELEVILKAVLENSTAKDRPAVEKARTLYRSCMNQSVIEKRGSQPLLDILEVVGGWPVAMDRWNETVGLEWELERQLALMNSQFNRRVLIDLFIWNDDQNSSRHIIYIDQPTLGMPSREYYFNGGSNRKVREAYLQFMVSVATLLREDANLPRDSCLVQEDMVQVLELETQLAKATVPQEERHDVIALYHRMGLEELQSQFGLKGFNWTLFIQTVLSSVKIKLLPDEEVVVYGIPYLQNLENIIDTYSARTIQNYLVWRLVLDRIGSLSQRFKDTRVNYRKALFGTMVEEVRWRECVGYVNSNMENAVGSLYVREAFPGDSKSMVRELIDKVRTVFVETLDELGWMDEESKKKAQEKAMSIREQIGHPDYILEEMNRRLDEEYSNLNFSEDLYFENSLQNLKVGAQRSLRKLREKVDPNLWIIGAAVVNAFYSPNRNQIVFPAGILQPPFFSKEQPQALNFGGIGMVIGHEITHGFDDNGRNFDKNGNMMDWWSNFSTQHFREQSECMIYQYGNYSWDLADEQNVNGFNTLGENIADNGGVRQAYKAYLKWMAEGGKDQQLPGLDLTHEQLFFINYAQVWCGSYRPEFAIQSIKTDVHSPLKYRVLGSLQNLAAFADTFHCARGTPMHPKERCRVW
Experimental: (§1) • a) hSEP (sol hu)(his)6; or: His6-tagged hSEP ectodomain. • stock solution: 53 μg/ml in 20 mM HEPES pH 7.2, 5% glycerol, 0.005% Tween20, 100 mM NaCl, purity>99% • working solution: stock solution diluted with assay buffer to 5 μg/ml • Supplier: Innogenetics, Ghent, Belgium. Preparation and purification of the protein were performed as described in WO 02/094176. • b) NEP (prepared from pig kidney cortex) • stock solution: 120 μg/ml in 20 mM bisTris, purity>95% • working solution: stock solution diluted with assay buffer to 5 μg/ml • Supplier: Dr. Philippe Crine, Univ. of Montreal, Canada Substrates: • a) VIP • b) CNP (32-53) • stock solution: 100 μM in assay buffer • Supplier: Bachem, Weil am Rhein, Germany
(§2) Assay buffer: 100 mM Tris pH 7.0, 250 mM NaCl
(§3) 80 μl of assay buffer, 10 μl of enzyme working solution (NEP or hSEP) and 10 μl of peptide stock solution (VIP or CNP) were mixed in an Eppendorf vial and incubated for 120 min. at 37° C. The enzymatic reaction was subsequently terminated by heating to 95° C. for 5 min. […]
(§4) All peptides were detected by absorbance at 214 nm (UV spectroscopy).
(§5) The percentage (=%) of hydrolysis was calculated on the basis of the peak area of the undegraded peptide for an enzyme containing sample Y in correlation to a sample containing the same concentration of peptide without enzyme (blank) by the following equation: % hydrolysis=100*(blank−Y) […]

patients with ED = details: intracavernosal injection, combined with the α-adrenoceptor antagonist phentolamine; cited from earlier work
[2] = target: T2, NEP (prepared from pig kidney cortex) (Sus scrofa, UniProt A0A4X1SQE6); assay: Activity assay: breakdown of VIP and CNP by NEP; assay type: biochemical; details: 120 min at 37° C., no inhibitor
Experimental: as §1, §2, §3, §4, §5

human corpus cavernosum = assay: Big-ET-induced contraction of human cavernosal strips in vitro; assay type: cell-based; details: compounds at 10 μM, 20 min incubation; big-ET-1 10^−8 M; mean of n corpus cavernosum samples
Experimental: 2. Influence of Test Compounds on Big-ET-Induced Contraction of Human Cavernosal Strips In Vitro
Human erectile tissues were obtained from the corpus cavernosum of 9 patients undergoing surgery for implantation of penile prosthesis as treatment of erectile dysfunction or penile congenital curvature. After surgery, the tissue samples were transported and stored at 4° C. in RPMI-1640 medium containing HEPES (23.8 mM), penicillin (100 IU/ml) and streptomycin (0.1 mg/ml) until use (within 24 hours). Eight sections of 4×2×2 mm were excised from the corpus cavernosum of each donor for each experiment. Cavernosal strips were suspended in 5 ml organ chambers filled with Krebs-HEPES buffer. Organ chambers were maintained at 37° C. and continuously bubbled with 95% O2 and 5% CO2 to maintain a pH at 7.4. The cavernosal strips were connected to force transducers for isometric tension recording (Pioden controls Ltd, UK), and an initial tension of 1 g was applied. Following amplification, the tension changes were digitalized via a Mac Lab™/8 using Chart software (AD Instruments Ltd). The tissue preparation were allowed to equilibrate for 90 minutes, while being washed periodically (every 15 minutes) with fresh Krebs-HEPES buffer. When a stable resting tension was attained, the strips were set to at least 500 mg of basal tension. Following the equilibration period, the erectile tissues were primed with KCl 80 mM during 10 min. Once this priming period was achieved, the strips were washed by fresh Krebs-HEPES solution and allowed to re-equilibrate for 30 minutes at 500 mg of tension.
Once the strips were stabilized after the priming period, they were incubated with one of the following compounds (all at 10 μM, unless indicated otherwise) during 20 min: compound of Formula IV, compound of Formula V, SM-19712 (a selective and potent endothelin converting enzyme-1 inhibitor), DL-thiorphan (a selective and potent NEP inhibitor), and the combination of SM-19712, 10 μM and DL-thiorphan, and the common vehicle (phosphate buffer).
The strips were then exposed to the half-maximally effective concentration of big-ET-1 (10^−8 M) determined in the preliminary experiments until a stable response was obtained.
Contractile responses were expressed as absolute change in maximal developed tension (in mg). To reduce the potential heterogeneity of responses between strips, the contraction to big-ET-1 was normalized by the contractile responses to KCl 80 mM obtained during the priming period.
The results are from duplicate or triplicate determinations from a single corpus cavernosum sample were averaged and values are expressed as percentage of the contractile responses induced by 80 mM of KCl, as mean […]SEM, for n corpus cavernosum samples.

[3] = target: T1, hSEP (His6-tagged hSEP ectodomain); assay: Inhibition of enzymatic breakdown of CNP and VIP by hSEP (in vitro enzymatic assay, HPLC); assay type: biochemical; details: 15 min preincubation, 60 min at 37° C.
Experimental: (§6) 1. Inhibition of Enzymatic Breakdown of CNP and VIP by the Test Compounds
(§7) The inhibition of the enzymatic breakdown of CNP and VIP by the test compounds of Formula I according to the invention was measured in an enzymatic in vitro assay according to the following protocol:
as §1, §2
(§8) All test compounds were dissolved in DMSO at 10 mM and further diluted with assay buffer.
(§9) 70 μl of assay buffer, 10 μl of enzyme working solution (NEP or hSEP) and 10 μl of a test compound solution were mixed in an Eppendorf vial and preincubated at 37° C. for 15 minutes. Then, 10 μl of peptide stock solution (VIP or CNP) was added and the reaction mixture was incubated at 37° C. for 60 min. to allow enzymatic hydrolysis. The enzymatic reaction was subsequently terminated by heating to 95° C. for 5 min. After centrifugation (Heraeus Biofuge B, 3 min) the supernatant was subjected to HPLC.
(§10) For separating the remaining substrate from the cleavage products, a reversed phase HPLC technique with a CC 125/4 Nucleosil 300/5 C18 RP column and a CC 8/4 Nucleosil 100/5 C18 precolumn (Macherey-Nagel, Duren, Germany) was used. 60 μl of the reaction samples were injected into the HPLC and the column was eluted at a flow rate of 1 ml/min with the following gradient: […]
as §4
(§11) Basis of the calculation of % inhibition is the peak area of the undegraded peptide (VIP or CNP) for an inhibitor containing sample X in comparison to samples containing only peptide (blank) or peptide and enzyme without inhibitor (control) according to the following equation: % inhib=100*(X−control)/(blank−control)
(§12) All samples were run in duplicate and mean values were used. A solvent control (0.1% DMSO) was added to each assay run.

[4] = target: T2, NEP (prepared from pig kidney cortex); assay: Inhibition of enzymatic breakdown of CNP and VIP by NEP (in vitro enzymatic assay, HPLC); assay type: biochemical; details: 15 min preincubation, 60 min at 37° C.
Experimental: as §6, §7, §1, §2, §8, §9, §10, §4, §11, §12

[5] = substrate CNP (32-53), read-out: inhibition of breakdown of CNP by hSEP IC50
[6] = substrate VIP, read-out: inhibition of breakdown of VIP by hSEP IC50
[7] = substrate CNP (32-53), read-out: inhibition of breakdown of CNP by NEP IC50
[8] = substrate VIP, read-out: inhibition of breakdown of VIP by NEP IC50
[9] = inhibition of breakdown of CNP by NEP IC50, substrate CNP (32-53)
[10] = inhibition of breakdown of VIP by NEP IC50, substrate VIP

T2 sequence (A0A4X1SQE6 entry or part of it): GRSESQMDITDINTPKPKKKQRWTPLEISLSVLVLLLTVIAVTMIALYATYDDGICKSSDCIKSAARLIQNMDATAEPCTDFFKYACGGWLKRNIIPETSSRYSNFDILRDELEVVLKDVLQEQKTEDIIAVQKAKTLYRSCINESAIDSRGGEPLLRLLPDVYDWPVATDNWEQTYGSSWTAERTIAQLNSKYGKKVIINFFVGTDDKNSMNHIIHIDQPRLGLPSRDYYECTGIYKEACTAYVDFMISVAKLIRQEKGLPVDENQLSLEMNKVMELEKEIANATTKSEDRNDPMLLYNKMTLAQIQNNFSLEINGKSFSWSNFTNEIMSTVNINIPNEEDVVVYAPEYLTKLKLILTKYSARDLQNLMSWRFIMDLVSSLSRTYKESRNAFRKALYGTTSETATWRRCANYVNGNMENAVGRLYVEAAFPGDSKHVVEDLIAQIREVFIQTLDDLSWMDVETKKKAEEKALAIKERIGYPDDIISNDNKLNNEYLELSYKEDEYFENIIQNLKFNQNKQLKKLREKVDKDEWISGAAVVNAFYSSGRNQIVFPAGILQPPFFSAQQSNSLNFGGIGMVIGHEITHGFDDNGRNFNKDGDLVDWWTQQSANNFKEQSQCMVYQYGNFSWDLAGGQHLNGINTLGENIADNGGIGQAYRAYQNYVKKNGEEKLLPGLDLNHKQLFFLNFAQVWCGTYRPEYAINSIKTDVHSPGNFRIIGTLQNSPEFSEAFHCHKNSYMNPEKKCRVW

Compound: VIP: vasoactive intestinal peptide, substrate, supplier Bachem
- degradation at t = 2 h by hSEP [1]: 36%
- response rate (erections sufficient for sexual intercourse) (patients with ED): 67%
- degradation at t = 2 h by NEP [2]: 28%

Compound: Cc1nn(-c2ccccc2)c(NC(=O)NS(=O)(=O)c2ccc(Cl)cc2)c1C#N [SM-19712, reference compound]
- Maximal big-ET-induced contraction (human corpus cavernosum): 85.10 percentage of the contractile responses induced by 80 mM of KCl

Compound: CCOC(=O)C(CCc1ccccc1)CC1(C(=O)NC2CCc3ccccc3N(CC(=O)O)C2=O)CCCC1 (stereo not shown) [compound of Formula II, 2-[1-(1-carboxymethyl-2-oxo-2,3,4,5-tetrahydro-1H-benzo[b]azepin-3-ylcarbamoyl)-cyclopentylmethyl]-4-phenyl-butyric acid ethyl ester]
- IC50 [3, 5]: 0.7 nM
- IC50 [3, 6]: 3.5 nM
- IC50 [4, 7]: 7.5 nM
- IC50 [4, 8]: 3.3 nM

Compound: CNP: C-type natriuretic peptide, substrate CNP (32-53), supplier Bachem
- degradation at t = 2 h by hSEP [1]: 46%
- degradation at t = 2 h by NEP [2]: 39%

Compound: CCOP(=O)(CC1(C(=O)N[C@H]2CCc3ccccc3N(CC(=O)OC(C)(C)C)C2=O)CCCC1)OCc1ccccc1 (stereo partly drawn) [compound 2, (3S)-(3-{[1-(Benzyloxy-ethoxy-phosphorylmethyl)-cyclopentanecarbonyl]-amino}-2-oxo-2,3,4,5-tetrahydro-benzo[b]azepin-1-yl)-acetic acid tert-butyl ester]
- IC50 [3, 5]: 2.8 nM
- IC50 [3, 6]: 4 nM
- IC50 [4, 9]: 2.3 nM
- IC50 [4, 10]: 1.6 nM

Compound: O=C(O)CN1C(=O)C(NC(=O)C2(CC(CCc3cccc4ccccc34)C(=O)O)CCCC2)CCc2ccccc21 (stereo not shown) [cpd. of Formula V, 2-[1-(1-carboxymethyl-2-oxo-2,3,4,5-tetrahydro-1H-benzo[b]azepin-3-ylcarbamoyl)-cyclopentylmethyl]-4-naphthalen-1-yl-butyric acid]
- Maximal big-ET-induced contraction (human corpus cavernosum): 49.60 percentage of the contractile responses induced by 80 mM of KCl

Compound: O=C(O)CN1C(=O)C(NC(=O)C2(CC(CCc3ccccc3)C(=O)O)CCCC2)CCc2ccccc21 (stereo not shown) [Cpd. of Formula IV, 2-[1-(1-carboxymethyl-2-oxo-2,3,4,5-tetrahydro-1H-benzo[b]azepin-3-ylcarbamoyl)-cyclopentylmethyl]-4-phenyl-butyric acid]
- Maximal big-ET-induced contraction (human corpus cavernosum): 32.80 percentage of the contractile responses induced by 80 mM of KCl

Compound: O=C(O)CNC(=O)C(CS)Cc1ccccc1 (racemic) [thiorphan, reference compound]
- Maximal big-ET-induced contraction (human corpus cavernosum): 91.57 percentage of the contractile responses induced by 80 mM of KCl
- IC50 [3, 5]: > 1000 nM
- IC50 [3, 6]: > 1000 nM
- IC50 [4, 9]: 8.4 nM
- IC50 [4, 10]: 6.4 nM

Compound: CCOC(=O)[C@H](CCc1cccc2ccccc12)CC1(C(=O)N[C@H]2CCc3ccccc3N(CC(=O)O)C2=O)CCCC1 [compound of Formula III, {(3S)-3-[({1-[(2R)-2-(ethoxycarbonyl)-4-(1-naphthyl)butyl]cyclopentyl}carbonyl)amino]-2-oxo-2,3,4,5-tetrahydro-1H-1-benzazepin-1-yl}acetic acid]
- IC50 [3, 5]: 2.2 nM
- IC50 [3, 6]: 2.9 nM
- IC50 [4, 7]: 6.6 nM
- IC50 [4, 8]: 4.2 nM
